Measured values taken from US20130115671A1, “ENZYMES FROM CONIDIOBOLUS BREFELDIANUS AND PROCESS FOR PREPARATION THEREOF” (Council of Scientific and Industrial Research, priority 2010, published 2013).
Where “and” joins values, the source holds several entries; their conditions need not be identical. Identical values can stand only once. Like-named read-outs stand apart in the source and are kept apart here. Each block holds one compound with its values, some of them ahead of it.

What was measured:
[1] = test system: protease secreted by Conidiobolus brefeldianus MTCC 5185; experiment: Effect of metals on protease activity; assay type: biochemical
[2] = test system: protease from Conidiobolus brefeldianus MTCC 5185; experiment: Stability of protease at 50° C. in presence of sugar alcohols; assay type: physicochemical; set-up: unit not given here
Method: Ultrafiltered protease as described in example 27 was incubated at 50° C. in presence of glycerol, mannitol, sorbitol and xylitol at 20% concentration up to 3 h. Aliquots were removed at regular intervals of 30 min and residual activity was estimated at 50° C., pH 9.

[3] = test system: protease from Conidiobolus brefeldianus MTCC 5185
Method: This example illustrates the stability of the protease in presence of salts. […] Aliquots were removed at regular intervals of 30 min and residual activity was estimated at 50° C., pH 9.

[4] = test system: protease from Conidiobolus brefeldianus MTCC 5185; experiment: Stability of protease at 50° C. in presence of trehalose and sorbitol; assay type: physicochemical; set-up: unit not given here
Description: Stability increased with increasing concentration of trehalose and sorbitol.

[5] = metal 5 mM in assay mixture, crude protease
[6] = ultrafiltered protease with 20% sugar alcohol, 0 min
[7] = 10 mM CaCl2, 0.5M NaCl, 0.5M glycine or 15% (NH4)2SO4, 0 min
[8] = salt concentration as in column head, 30 min
[9] = salt concentration as in column head, 60 min
[10] = salt concentration as in column head, 90 min
[11] = salt concentration as in column head, 120 min
[12] = salt concentration as in column head, 180 min

SMILES: [Cl][Cd][Cl] [CdCl2]
effect on protease activity ([1]; metal 5 mM): active
Relative Activity (%) of protease [1, 5]: 114.30%

SMILES: [Cl-].[Cl-].[Co+2] [CoCl2]
Relative Activity (%) of protease [1]: 118.71%
effect on protease activity [1]: active

SMILES: [Cl][Cu][Cl] [CuCl2]
Relative Activity (%) of protease [1, 5]: 12.78%

SMILES: [Cl][Hg][Cl] [HgCl2]
effect on protease activity ([1]; metal 5 mM): totally inhibited
Relative Activity (%) of protease [1, 5]: 3.27%

SMILES: [Cl-].[K+] [KCl]
effect on protease activity ([1]; metal 5 mM): active
Relative Activity (%) of protease [1, 5]: 158.50%

residual activity of protease at 50° C. ([2]; 20% sugar alcohol, 30 min): 74.06
residual activity of protease at 50° C. ([2]; 20% sugar alcohol, 60 min): 64.42
residual activity of protease at 50° C. ([2]; 20% sugar alcohol, 90 min): 58.13
residual activity of protease at 50° C. ([2]; 20% sugar alcohol, 120 min): 48.66
residual activity of protease at 50° C. ([2]; 20% sugar alcohol, 180 min): 40.71
residual activity of protease at 50° C. [2, 6]: 100
SMILES: OC[C@@H](O)[C@@H](O)[C@H](O)[C@H](O)CO [Mannitol, mannitol]

SMILES: [Cl-].[Cl-].[Mg+2] [MgCl2]
Relative Activity (%) of protease [1, 5]: 132.24%

SMILES: [Cl-].[Na+] [NaCl]
Residual Activity (%) of protease at 50° C. [3, 7]: 100.00%
Residual Activity (%) of protease at 50° C. [3, 8]: 77.79%
Residual Activity (%) of protease at 50° C. [3, 9]: 54.11%
Residual Activity (%) of protease at 50° C. [3, 10]: 49.26%
Residual Activity (%) of protease at 50° C. [3, 11]: 48.83%
Residual Activity (%) of protease at 50° C. [3, 12]: 37.44%

residual activity of protease at 50° C. ([4]; additive 20%, 0 h): 100.00
residual activity of protease at 50° C. ([4]; additive 20%, 1 h): 78.14
residual activity of protease at 50° C. ([4]; additive 20%, 2 h): 62.15
residual activity of protease at 50° C. ([4]; additive 20%, 3 h): 46.12
residual activity of protease at 50° C. ([4]; additive 20%, 4 h): 39.80
residual activity of protease at 50° C. ([4]; additive 40%, 0 h): 100.00
residual activity of protease at 50° C. ([4]; additive 40%, 1 h): 85.27
residual activity of protease at 50° C. ([4]; additive 40%, 2 h): 75.99
residual activity of protease at 50° C. ([4]; additive 40%, 3 h): 75.47
residual activity of protease at 50° C. ([4]; additive 40%, 4 h): 71.11
residual activity of protease at 50° C. ([4]; additive 50%, 0 h): 100.00
residual activity of protease at 50° C. ([4]; additive 50%, 1 h): 92.32
residual activity of protease at 50° C. ([4]; additive 50%, 2 h): 89.98
residual activity of protease at 50° C. ([4]; additive 50%, 3 h): 85.89
residual activity of protease at 50° C. ([4]; additive 50%, 4 h): 81.89
residual activity of protease at 50° C. ([4]; additive 50%, 4 h, listed as trehalose): ~80
SMILES: OC[C@H]1O[C@H](O[C@H]2O[C@H](CO)[C@@H](O)[C@H](O)[C@H]2O)[C@H](O)[C@@H](O)[C@@H]1O [Trehalose, trehalose]

residual activity of protease at 50° C. ([2]; 20% sugar alcohol, 30 min): 74.68
residual activity of protease at 50° C. ([2]; 20% sugar alcohol, 60 min): 62.01
residual activity of protease at 50° C. ([2]; 20% sugar alcohol, 90 min): 49.08
residual activity of protease at 50° C. ([2]; 20% sugar alcohol, 120 min): 36.97
residual activity of protease at 50° C. ([2]; 20% sugar alcohol, 180 min): 31.73
residual activity of protease at 50° C. [2, 6]: 100
SMILES: OCC(O)CO [glycerol]

Residual Activity (%) of protease at 50° C. [3, 7]: 100.00%
Residual Activity (%) of protease at 50° C. [3, 8]: 74.85%
Residual Activity (%) of protease at 50° C. [3, 9]: 54.19%
Residual Activity (%) of protease at 50° C. [3, 10]: 43.16%
Residual Activity (%) of protease at 50° C. [3, 11]: 39.89%
Residual Activity (%) of protease at 50° C. [3, 12]: 31.62%
SMILES: NCC(=O)O [glycine]

residual activity of protease at 50° C. ([4]; additive 20%, 0 h): 100.0
residual activity of protease at 50° C. ([4]; additive 20%, 1 h): 77.28
residual activity of protease at 50° C. ([4]; additive 20%, 2 h): 49.25
residual activity of protease at 50° C. ([4]; additive 20%, 3 h): 42.99
residual activity of protease at 50° C. ([4]; additive 20%, 4 h): 33.11
residual activity of protease at 50° C. ([4]; additive 40%, 0 h): 100.0
residual activity of protease at 50° C. ([4]; additive 40%, 1 h): 87.00
residual activity of protease at 50° C. ([4]; additive 40%, 2 h): 70.69
residual activity of protease at 50° C. ([4]; additive 40%, 3 h): 61.54
residual activity of protease at 50° C. ([4]; additive 40%, 4 h): 58.57
residual activity of protease at 50° C. ([4]; additive 50%, 0 h): 100.0
residual activity of protease at 50° C. ([4]; additive 50%, 1 h): 91.31
residual activity of protease at 50° C. ([4]; additive 50%, 2 h): 88.44
residual activity of protease at 50° C. ([4]; additive 50%, 3 h): 79.44
residual activity of protease at 50° C. ([4]; additive 50%, 4 h): ~80
residual activity of protease at 50° C. ([4]; additive 50%, 4 h, listed as Sorbitol): 78.25
residual activity of protease at 50° C. ([2]; 20% sugar alcohol, 30 min): 84.01
residual activity of protease at 50° C. ([2]; 20% sugar alcohol, 60 min): 70.66
residual activity of protease at 50° C. ([2]; 20% sugar alcohol, 90 min): 62.31
residual activity of protease at 50° C. ([2]; 20% sugar alcohol, 120 min): 51.57
residual activity of protease at 50° C. ([2]; 20% sugar alcohol, 180 min): 47 and 47.11
residual activity of protease at 50° C. [2, 6]: 100
SMILES: OC[C@@H](O)[C@@H](O)[C@H](O)[C@@H](O)CO [sorbitol]

residual activity of protease at 50° C. ([2]; 20% sugar alcohol, 30 min): 76.31
residual activity of protease at 50° C. ([2]; 20% sugar alcohol, 60 min): 63.36
residual activity of protease at 50° C. ([2]; 20% sugar alcohol, 90 min): 52.42
residual activity of protease at 50° C. ([2]; 20% sugar alcohol, 120 min): 44.61
residual activity of protease at 50° C. ([2]; 20% sugar alcohol, 180 min): 39.25
residual activity of protease at 50° C. [2, 6]: 100
SMILES: OC[C@@H](O)[C@H](O)[C@@H](O)CO [xylitol]
